Source: patent US6643591B1, “Use of computational and experimental data to model organic compound reactivity in cytochrome P450 mediated reactions and to optimize the design of pharmaceuticals” (University of Pittsburgh, priority 1998, dated 2003)
“And” between values parts separate entries of the source, which are not always exact repeats. Identical values can stand only once. Like-named read-outs stand apart in the source and are kept apart here. Marks after values point to notes of the source that are not given here.

Columns and labels:
CYP2C8 = target: T1, CYP2C8 (Homo sapiens, UniProt P10632); details: pH 7.4
T1 sequence (P10632 1-490): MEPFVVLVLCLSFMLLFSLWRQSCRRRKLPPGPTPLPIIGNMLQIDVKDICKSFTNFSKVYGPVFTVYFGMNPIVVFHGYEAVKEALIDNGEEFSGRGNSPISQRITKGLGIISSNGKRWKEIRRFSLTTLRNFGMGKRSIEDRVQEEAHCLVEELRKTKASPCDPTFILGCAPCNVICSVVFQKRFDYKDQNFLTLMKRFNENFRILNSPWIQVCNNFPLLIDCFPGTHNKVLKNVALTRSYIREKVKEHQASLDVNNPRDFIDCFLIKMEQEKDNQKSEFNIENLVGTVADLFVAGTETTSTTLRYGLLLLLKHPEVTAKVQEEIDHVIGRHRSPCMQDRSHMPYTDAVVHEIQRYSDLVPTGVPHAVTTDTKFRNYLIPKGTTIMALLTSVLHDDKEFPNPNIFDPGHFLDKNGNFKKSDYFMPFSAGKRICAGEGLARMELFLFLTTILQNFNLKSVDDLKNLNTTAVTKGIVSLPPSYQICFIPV

CYP = test: Activation energy differences from experimental regioselectivity of substrates in rapid equilibrium; assay type: in vitro ADME; set-up: unit not given here; details: difference in activation energy calculated by the experimental regioselectivity
Text: Five substrates shown to undergo rapid equilibrium between positions of metabolism have been used to prepare data for regression and then correlation with Eq. 1. The differences in activation energy calculated by the experimental regioselectivity of the substrates, along with the differences in AM1 activation enthalpies, are given in Table 1. Regression of the experimental data gives a slope correction for AM1 activation energies of 0.75±0.20.

multiple CYP isoforms = details: for P, calculated primary KIE, average / S, calculated secondary KIE, average: Avg over isoforms with unmasked KIE; for INTER KIE, average: Avg over isoforms with unmasked KIE (p-MA: 1A2, 2B1, 2B6, 2E1; o-MA: six isoforms; α-ClMpX: 1A2, 2B1, 2B6); for Intramolecular KIE, average: Avg over the CYP isoforms tested; for Intramolecular KIE, range of values: range over the CYP isoforms tested
CYP2B6 = target: T2, CYP2B6 (Homo sapiens, UniProt P20813); details: human, pH 7.4
T2 sequence (P20813 1-491): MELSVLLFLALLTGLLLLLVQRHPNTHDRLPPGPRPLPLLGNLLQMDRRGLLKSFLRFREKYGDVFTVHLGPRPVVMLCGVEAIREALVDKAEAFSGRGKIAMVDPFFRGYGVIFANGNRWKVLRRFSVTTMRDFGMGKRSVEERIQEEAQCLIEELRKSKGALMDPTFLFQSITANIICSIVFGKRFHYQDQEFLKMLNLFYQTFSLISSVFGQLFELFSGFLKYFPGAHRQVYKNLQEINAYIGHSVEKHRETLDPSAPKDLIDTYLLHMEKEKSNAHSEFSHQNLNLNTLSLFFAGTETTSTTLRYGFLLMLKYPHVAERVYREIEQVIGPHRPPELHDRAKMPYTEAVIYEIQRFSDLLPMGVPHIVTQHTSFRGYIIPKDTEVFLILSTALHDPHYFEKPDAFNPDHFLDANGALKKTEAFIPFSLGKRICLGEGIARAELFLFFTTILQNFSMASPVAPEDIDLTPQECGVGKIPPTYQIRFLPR

CYP2E1 = CYP2E1 (Homo sapiens, UniProt P05181); details: pH 7.4
Chain of CYP2E1 (P05181 whole entry): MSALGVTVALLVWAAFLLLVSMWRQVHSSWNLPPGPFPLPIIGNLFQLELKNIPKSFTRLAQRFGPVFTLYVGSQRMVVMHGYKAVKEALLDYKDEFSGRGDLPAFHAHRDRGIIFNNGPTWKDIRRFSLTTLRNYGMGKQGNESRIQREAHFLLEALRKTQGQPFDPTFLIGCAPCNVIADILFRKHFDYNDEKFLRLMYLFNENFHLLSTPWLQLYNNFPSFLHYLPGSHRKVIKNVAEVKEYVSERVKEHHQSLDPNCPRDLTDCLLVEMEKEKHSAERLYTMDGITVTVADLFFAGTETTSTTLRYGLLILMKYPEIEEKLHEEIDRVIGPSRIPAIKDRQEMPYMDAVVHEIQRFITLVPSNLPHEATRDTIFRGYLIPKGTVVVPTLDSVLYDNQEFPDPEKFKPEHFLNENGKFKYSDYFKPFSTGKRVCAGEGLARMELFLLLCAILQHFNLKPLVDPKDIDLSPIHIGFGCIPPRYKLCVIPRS

CYP1A2 = target: T3, CYP1A2 (Homo sapiens, UniProt P05177); details: pH 7.4
T3 sequence (P05177 1-516): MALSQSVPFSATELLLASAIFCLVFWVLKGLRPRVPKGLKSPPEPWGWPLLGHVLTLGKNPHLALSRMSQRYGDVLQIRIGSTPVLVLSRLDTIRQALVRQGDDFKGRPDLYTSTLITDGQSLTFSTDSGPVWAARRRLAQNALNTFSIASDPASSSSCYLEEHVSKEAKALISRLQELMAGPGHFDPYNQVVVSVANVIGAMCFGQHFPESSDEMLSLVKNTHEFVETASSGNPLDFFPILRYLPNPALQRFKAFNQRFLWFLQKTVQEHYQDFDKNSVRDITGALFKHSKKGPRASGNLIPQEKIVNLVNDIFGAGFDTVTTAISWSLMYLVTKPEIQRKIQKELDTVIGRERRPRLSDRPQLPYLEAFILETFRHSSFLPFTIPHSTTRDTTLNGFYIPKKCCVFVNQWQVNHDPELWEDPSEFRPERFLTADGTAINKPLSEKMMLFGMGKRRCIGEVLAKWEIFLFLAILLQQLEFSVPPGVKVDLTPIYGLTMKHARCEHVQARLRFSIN

CYP2C9 = CYP2C9 (Homo sapiens, UniProt P11712); details: human, pH 7.4
Chain of CYP2C9 (P11712 whole entry): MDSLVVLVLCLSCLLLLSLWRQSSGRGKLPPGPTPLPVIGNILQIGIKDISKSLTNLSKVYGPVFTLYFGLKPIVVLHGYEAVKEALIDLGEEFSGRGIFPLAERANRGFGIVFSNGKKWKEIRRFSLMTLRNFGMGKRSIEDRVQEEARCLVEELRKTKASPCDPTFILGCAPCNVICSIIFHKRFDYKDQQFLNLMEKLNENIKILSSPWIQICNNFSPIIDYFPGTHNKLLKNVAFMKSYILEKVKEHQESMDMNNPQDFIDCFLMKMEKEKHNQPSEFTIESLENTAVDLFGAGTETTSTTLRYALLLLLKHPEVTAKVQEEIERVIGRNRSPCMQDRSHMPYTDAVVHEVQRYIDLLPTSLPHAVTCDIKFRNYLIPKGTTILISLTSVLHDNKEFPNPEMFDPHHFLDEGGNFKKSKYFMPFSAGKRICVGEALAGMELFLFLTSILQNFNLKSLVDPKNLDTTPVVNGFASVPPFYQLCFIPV

CYP4B1 = CYP4B1 (Oryctolagus cuniculus, UniProt P15128)
Chain of CYP4B1 (P15128 whole entry): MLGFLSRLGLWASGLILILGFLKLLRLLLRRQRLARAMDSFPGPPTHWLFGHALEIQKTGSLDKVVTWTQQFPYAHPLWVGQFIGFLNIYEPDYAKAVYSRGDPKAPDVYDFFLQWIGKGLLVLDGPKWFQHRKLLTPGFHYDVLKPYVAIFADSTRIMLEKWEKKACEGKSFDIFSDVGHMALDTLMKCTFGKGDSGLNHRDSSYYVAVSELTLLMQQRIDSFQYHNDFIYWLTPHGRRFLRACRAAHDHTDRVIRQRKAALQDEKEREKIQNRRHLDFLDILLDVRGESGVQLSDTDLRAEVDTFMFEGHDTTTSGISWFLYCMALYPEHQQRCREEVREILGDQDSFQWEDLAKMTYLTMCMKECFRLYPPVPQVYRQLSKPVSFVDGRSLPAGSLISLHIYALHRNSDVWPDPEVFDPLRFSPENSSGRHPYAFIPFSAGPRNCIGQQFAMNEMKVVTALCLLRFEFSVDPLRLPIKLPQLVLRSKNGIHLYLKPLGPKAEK

## COc1ccccc1C [o-Methylanisole, o-methylanisole]
CYP2C8
  Metabolite profile, Phenol: 33 Mol-%
  Metabolite profile, o-CR: 36 Mol-%
  Metabolite profile, o-MBA: 31 Mol-%
  nmol 4M3MPh: 0.2 nmol
  nmol TP: 0.6 nmol
  nmol o-CR: 0.2 nmol
  nmol o-MBA: 0.21 nmol
CYP
  ΔΔG (experimental): 0.3
Multiple CYP isoforms
  ΔΔG^‡ corresponding to regioselectivity BzH:ODAlk: 0.1-0.65
  P, calculated primary KIE, average: 8
  S, calculated secondary KIE, average: 1.2
  INTER KIE, average: 11
  Intramolecular KIE, average: 6.2
  Intramolecular KIE, range of values: 5.7-6.9
Multiple CYP isoforms; 20 min, […], pH 7.4
  Ring hydroxylation products, share of total products: 30-60%
Multiple CYP isoforms; listed as o-MA
  INTER KIE, average: 11±3
  P, calculated primary KIE, average: 8±3
  S, calculated secondary KIE, average: 1.2±0.4
  Intramolecular KIE, average: 6.2±0.6
Multiple CYP isoforms; range over the isoforms
  P (primary KIE), range: 6.7-8.9
  S (secondary KIE), range: 1.15-1.29
Multiple CYP isoforms; range over the isoforms, listed as o-MA
  Regioselectivity BzH:ODAlk, range: 1.2-2.9
CYP2B6
  INTER KIE (combined intermolecular competitive KIE): 10.43
  Intramolecular KIE (kH/kD): 6.78
  Metabolite profile, o-CR: 56 Mol-%
  Metabolite profile, o-MBA: 29 Mol-%
  P, calculated primary KIE: 7.8
  Ratio ODAlk:Arom: 0.3
  S, calculated secondary KIE: 1.15
  nmol 4M3MPh: 2.8 nmol
  nmol TP: 19 nmol
  nmol o-CR: 10.7* nmol
  nmol o-MBA: 5.5* nmol
CYP2E1
  INTER KIE (combined intermolecular competitive KIE): 10
  Intramolecular KIE (kH/kD): 5.95
  Metabolite profile, Phenol: 57 Mol-%
  Metabolite profile, o-CR: 16 Mol-%
  Metabolite profile, o-MBA: 27 Mol-%
  P, calculated primary KIE: 7.1
  Ratio of ring hydroxylation para to the methoxy group to ODAlk: 3.5
  S, calculated secondary KIE: 1.19
  nmol 4M3MPh: 13* nmol
  nmol TP: 23* nmol
  nmol o-CR: 3.8* nmol
  nmol o-MBA: 6.1* nmol
CYP1A2
  INTER KIE (combined intermolecular competitive KIE): 9.15
  Intramolecular KIE (kH/kD): 5.7
  Metabolite profile, Phenol: 54 Mol-%
  Metabolite profile, o-CR: 12 Mol-%
  Metabolite profile, o-MBA: 34 Mol-%
  P, calculated primary KIE: 6.7
  Ratio of ring hydroxylation para to the methoxy group to ODAlk: 4.5
  S, calculated secondary KIE: 1.17
  nmol 4M3MPh: 9.7* nmol
  nmol TP: 18.0 nmol
  nmol o-CR: 2.2* nmol
  nmol o-MBA: 6.1* nmol
CYP2C9
  INTER KIE (combined intermolecular competitive KIE): 12
  Intramolecular KIE (kH/kD): 6.3
  Metabolite profile, Phenol: 32 Mol-%
  Metabolite profile, o-CR: 22 Mol-%
  Metabolite profile, o-MBA: 46 Mol-%
  P, calculated primary KIE: 8
  Ratio of ring hydroxylation para to the methoxy group to ODAlk: 1.5
  S, calculated secondary KIE: 1.2
  nmol TP: 6.9* nmol
  nmol o-CR: 1.5* nmol
  nmol o-MBA: 3.1* nmol
CYP4B1
  INTER KIE (combined intermolecular competitive KIE): 14.94
  Intramolecular KIE (kH/kD): 6.90
  P, calculated primary KIE: 8.9
  S, calculated secondary KIE: 1.29
CYP4B1; pH 7.4
  Metabolite profile, o-CR: 59 Mol-%
  Metabolite profile, o-MBA: 39 Mol-%
  Ratio ODAlk:Arom: 0.03
  nmol 4M3MPh: 1.1* nmol
  nmol TP: 48 nmol
  nmol o-CR: 29* nmol
  nmol o-MBA: 18.7* nmol

## COc1ccc(C)cc1 [p-Methylanisole, p-methylanisole]
CYP2C8
  nmol p-CR: 0.20 nmol
  nmol p-MBA: 1.89 nmol
  nmol total TP: 2.08 nmol
CYP
  ΔΔG (experimental): 1.1
Multiple CYP isoforms
  P, calculated primary KIE, average: 5
  S, calculated secondary KIE, average: 1.2
  INTER KIE, average: 6
  Intramolecular KIE, average: 4.4
  Intramolecular KIE, range of values: 3.69-6.08
Multiple CYP isoforms; listed as p-MA
  INTER KIE, average: 6±1
  P, calculated primary KIE, average: 5±1
  S, calculated secondary KIE, average: 1.15±0.22
  Intramolecular KIE, average: 4.4±0.3
Multiple CYP isoforms; range over the isoforms
  Combined intermolecular competitive KIE, range: 5.9-6.8
  P (primary KIE), range: 4.3-5.0
  S (secondary KIE), range: 1.08-1.22
CYP2B6
  INTER KIE (combined intermolecular competitive KIE): 6.8
  Intramolecular KIE (kH/kD): 3.74
  P, calculated primary KIE: 4.6
  S, calculated secondary KIE: 1.22
  nmol p-CR: 2.10* nmol
  nmol p-MBA: 7.0* nmol
  nmol total TP: 9.1 nmol
CYP2E1
  INTER KIE (combined intermolecular competitive KIE): 6.6
  Intermolecular Competitive ^D(V/K): 2.57 ± 0.02
  Intermolecular Noncompetitive ^D(V/K): 2.60 ± 0.01
  Intermolecular Noncompetitive ^DV: 2.28 ± 0.10
  P, calculated primary KIE: 4.9
  S, calculated secondary KIE: 1.16
  nmol p-CR: 5.6* nmol
  nmol p-MBA: 23.8* nmol
  nmol total TP: 29.4 nmol
CYP1A2
  INTER KIE (combined intermolecular competitive KIE): 5.9
  P, calculated primary KIE: 5.0
  S, calculated secondary KIE: 1.08
CYP2C9
  INTER KIE (combined intermolecular competitive KIE): 2.6
CYP4B1
  INTER KIE (combined intermolecular competitive KIE): 1.4 and 1.42
  Intramolecular KIE (kH/kD): 6.08
CYP4B1; pH 7.4
  nmol p-CR: 48* nmol
  nmol p-MBA: 63* nmol
  nmol total TP: 111* nmol
